Consider 45 molecules from US11492345B2, “Compounds and their methods of use” (Praxis Precision Medicines, Inc., priority 2017, dated 2022).

T1 sequence (Q9UQD0 whole entry): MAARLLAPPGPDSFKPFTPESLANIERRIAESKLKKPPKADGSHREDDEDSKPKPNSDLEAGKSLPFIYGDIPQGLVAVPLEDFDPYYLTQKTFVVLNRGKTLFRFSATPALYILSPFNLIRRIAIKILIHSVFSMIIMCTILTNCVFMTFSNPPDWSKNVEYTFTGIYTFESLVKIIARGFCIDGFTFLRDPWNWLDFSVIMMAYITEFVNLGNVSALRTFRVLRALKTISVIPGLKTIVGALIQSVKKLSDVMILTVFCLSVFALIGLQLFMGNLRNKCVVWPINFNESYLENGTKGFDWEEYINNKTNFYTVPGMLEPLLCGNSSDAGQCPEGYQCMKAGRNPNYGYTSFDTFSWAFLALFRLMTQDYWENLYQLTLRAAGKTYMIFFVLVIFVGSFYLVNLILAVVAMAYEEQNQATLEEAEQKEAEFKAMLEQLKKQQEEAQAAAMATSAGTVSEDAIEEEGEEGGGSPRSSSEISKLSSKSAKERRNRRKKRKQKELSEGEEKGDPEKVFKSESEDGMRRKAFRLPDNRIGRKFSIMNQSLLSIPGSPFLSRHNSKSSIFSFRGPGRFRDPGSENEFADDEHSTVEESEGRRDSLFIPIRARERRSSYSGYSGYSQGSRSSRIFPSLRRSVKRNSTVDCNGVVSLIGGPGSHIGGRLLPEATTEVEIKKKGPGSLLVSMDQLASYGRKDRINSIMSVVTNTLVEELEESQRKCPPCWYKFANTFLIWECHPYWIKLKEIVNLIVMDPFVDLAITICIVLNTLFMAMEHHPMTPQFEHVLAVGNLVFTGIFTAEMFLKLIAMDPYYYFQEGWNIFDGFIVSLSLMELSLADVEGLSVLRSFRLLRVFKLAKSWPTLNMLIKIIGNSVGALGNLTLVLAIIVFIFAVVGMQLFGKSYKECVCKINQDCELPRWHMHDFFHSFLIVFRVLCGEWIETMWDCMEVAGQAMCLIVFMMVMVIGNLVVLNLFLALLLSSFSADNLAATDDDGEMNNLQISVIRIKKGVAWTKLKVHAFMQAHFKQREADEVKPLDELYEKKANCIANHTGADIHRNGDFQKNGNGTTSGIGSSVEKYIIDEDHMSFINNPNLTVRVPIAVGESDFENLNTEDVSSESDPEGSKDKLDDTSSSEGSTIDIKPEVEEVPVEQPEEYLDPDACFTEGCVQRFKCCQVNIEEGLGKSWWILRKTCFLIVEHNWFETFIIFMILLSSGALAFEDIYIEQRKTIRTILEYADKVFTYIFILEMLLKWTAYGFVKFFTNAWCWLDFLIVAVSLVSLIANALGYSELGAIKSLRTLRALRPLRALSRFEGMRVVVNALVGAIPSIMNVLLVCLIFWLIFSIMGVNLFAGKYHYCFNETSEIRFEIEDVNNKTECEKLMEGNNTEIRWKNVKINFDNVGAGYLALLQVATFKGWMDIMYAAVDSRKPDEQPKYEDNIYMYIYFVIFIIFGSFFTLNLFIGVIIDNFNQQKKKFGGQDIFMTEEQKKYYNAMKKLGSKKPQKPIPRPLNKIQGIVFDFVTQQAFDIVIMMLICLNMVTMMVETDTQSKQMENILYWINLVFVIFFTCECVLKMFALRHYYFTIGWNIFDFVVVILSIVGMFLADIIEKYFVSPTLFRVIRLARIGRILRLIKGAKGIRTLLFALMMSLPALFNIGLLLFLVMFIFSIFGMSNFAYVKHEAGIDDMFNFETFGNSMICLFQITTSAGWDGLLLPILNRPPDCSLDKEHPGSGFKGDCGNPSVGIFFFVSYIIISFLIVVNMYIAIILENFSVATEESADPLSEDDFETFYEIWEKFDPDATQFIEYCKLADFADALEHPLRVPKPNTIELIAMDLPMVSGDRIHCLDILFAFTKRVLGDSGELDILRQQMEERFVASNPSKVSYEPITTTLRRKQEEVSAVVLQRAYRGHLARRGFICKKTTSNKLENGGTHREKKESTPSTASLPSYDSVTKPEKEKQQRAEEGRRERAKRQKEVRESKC

This experiment concerns the target T1, human Nav1.6 (hNav1.6) (Homo sapiens, UniProt Q9UQD0).
T1 construct: expressed in transfected cells; host or cells: HEK-293 (G418 selection)
Nature of the experiment: Modulation of late sodium current (INaL), PatchXpress electrophysiology. The following applies: HEK293; 1 μM compound; HEK-293 cells expressing recombinant human Nav channel; late current evoked by 300 nM ATX-II; steady-state inhibition; read-out: INaL v1.6 (1 μM, % Inhibition). It is filed as cell-based. The procedure: Functional characterization of exemplary compounds to modulate INaL expressed by the Nav1.6 voltage-gated sodium channel was accomplished using the PatchXpress™ high throughput electrophysiology platform (Molecular Devices, Sunnyvale, Calif.). HEK-293 cells expressing recombinant, human Nav1.6 (hNav1.6) were grown in DMEM/high-glucose Dulbecco's modified, 10% FBS, 2 mM sodium pyruvate, 10 mM HEPES and 400 μg/mL G418. Cells were grown to 50%-80% confluency prior to harvesting. Trypsinized cells were washed, allowed to recover for 1 hour and then resuspended in extracellular recording solution at a concentration of 1×10^6 cells/ml. The onboard liquid handling facility of the PatchXpress was used for dispensing cells and applying test compounds. Nav late currents were evoked by the application of 300 nM ATX-II. INaL was evoked by depolarizing pulses to 0 mV for 200 ms from a non-inactivating holding potential (e.g., −120 mV) at a frequency of 0.1 Hz. INaL amplitude and stability were determined by analyzing the mean current amplitude over the final 20 ms of the test pulse. […] Percent steady-state inhibition of INaL was calculated as: [(INaL_compound)/(INaL_control)]*100, where INaL_compound and INaL_control represent INaL recorded in the presence or absence of compound, respectively.
Broadly, the inhibition is the change of the read-out against control, counted positive when it falls. With `O=c1oc2ccc(-c3ccc(OC(F)(F)F)cc3)nc2n1C[C@H]1CCCCO1` (single isomer, unassigned) [Compound 54], the inhibition at 1 µM was 30 to 70%.

Consider `O=c1oc2ccc(-c3ccc(OC(F)(F)F)cc3)nc2n1C[C@@H]1CCCCO1` (single isomer, unassigned) [Compound 55], for which the inhibition at 1 µM lay within 30 to 70%. The figure for `O=c1oc2ccc(-c3ccc(OC(F)(F)F)cc3)cc2n1C[C@@H]1CCCCO1` (single isomer, unassigned) [Compound 58] is greater than 70%.

In the case of `O=c1oc2ccc(-c3ccc(OC(F)(F)F)cc3)cc2n1C[C@H]1CCCCO1` (single isomer, unassigned) [Compound 59], the inhibition at 1 µM is 30 to 70%. The same measure for `O=c1oc2ccc(-c3ccc(OC(F)(F)F)cc3)nc2n1C[C@@H]1CCOC1` (single isomer, unassigned) [Compound 61]: greater than 70%.

On to `O=c1oc2ccc(-c3ccc(OC(F)(F)F)cc3)nc2n1C[C@H]1CCOC1` (single isomer, unassigned) [Compound 62], for which the inhibition at 1 µM is greater than 70%. In the case of `O=c1oc2ccc(-c3ccc(OC(F)(F)F)cc3)nc2n1C[C@@H]1CCCO1` (single isomer, unassigned) [Compound 64], the inhibition at 1 µM was greater than 70%.

Consider `O=c1oc2ccc(-c3ccc(OC(F)(F)F)cc3)nc2n1C[C@H]1CCCO1` (single isomer, unassigned) [Compound 65], for which the inhibition at 1 µM was 30 to 70%. With `O=c1oc2ccc(-c3ccc(OC(F)(F)F)cc3)nc2n1C[C@H]1CCCOC1` (single isomer, unassigned) [Compound 66], the inhibition at 1 µM is greater than 70%.

On to `O=c1oc2ccc(-c3ccc(OC(F)(F)F)cc3)nc2n1C[C@@H]1CCCOC1` (single isomer, unassigned) [Compound 67], for which the inhibition at 1 µM was greater than 70%. Consider `O=c1oc2ccc(-c3ccc(OC(F)(F)F)cc3)cc2n1C[C@@H]1CCOC1` (single isomer, unassigned) [Compound 69], for which the inhibition at 1 µM was greater than 70%. The figure for `O=c1oc2ccc(-c3ccc(OC(F)(F)F)cc3)cc2n1C[C@H]1CCOC1` (single isomer, unassigned) [Compound 70] is 30 to 70%; for `O=c1oc2ccc(-c3ccc(OC(F)(F)F)cc3)cc2n1C[C@H]1CCCOC1` (single isomer, unassigned) [Compound 73] it is greater than 70%; for `C[C@H](O)CCn1c(=O)oc2ccc(-c3ccc(OC(F)(F)F)cc3)nc21` (single isomer, unassigned) [Compound 99] it is greater than 70%. The figure for `C[C@@H](O)CCn1c(=O)oc2ccc(-c3ccc(OC(F)(F)F)cc3)nc21` (single isomer, unassigned) [Compound 100] is greater than 70%. Take `O=c1oc2ccc(-c3ccc(OC(F)(F)F)cc3)nc2n1C[C@H]1CC1(F)F` (single isomer, unassigned) [Compound 106]: the inhibition at 1 µM is greater than 70%. The figure for `O=c1oc2ccc(-c3ccc(OC(F)(F)F)cc3)nc2n1C[C@@H]1CC1(F)F` (single isomer, unassigned) [Compound 107] is 30 to 70%; for `COC[C@@H]1CCN(C(=O)Cn2c(=O)oc3ccc(-c4ccc(OC(F)(F)F)cc4)cc32)C1` (single isomer, unassigned) [Compound 138] it is 30 to 70%.

Regarding `COC[C@H]1CCN(C(=O)Cn2c(=O)oc3ccc(-c4ccc(OC(F)(F)F)cc4)cc32)C1` (single isomer, unassigned) [Compound 139], the inhibition at 1 µM lay within 30 to 70%. Regarding `C[C@H](Cn1c(=O)oc2ccc(-c3ccc(OC(F)(F)F)cc3)nc21)c1ncccn1` (single isomer, unassigned) [Compound 149], the inhibition at 1 µM is greater than 70%. The same measure for `C[C@@H](Cn1c(=O)oc2ccc(-c3ccc(OC(F)(F)F)cc3)nc21)c1ncccn1` (single isomer, unassigned) [Compound 150]: 30 to 70%; for `O=c1oc2ccc(-c3ccc(OC(F)(F)F)cc3)cc2n1CC(F)(F)F` [Compound 2]: 30 to 70%. The figure for `Cc1nnc(CCn2c(=O)oc3ccc(-c4ccc(OC(F)(F)F)cc4)cc32)o1` [Compound 3] is greater than 70%; for `O=C1Cc2ccc(-c3ccc(OC(F)(F)F)cc3)cc2N1CC(F)(F)F` [Compound 4] it is greater than 70%; for `O=c1[nH]c2cc(-c3ccc(OC(F)(F)F)cc3)ccc2o1` [Compound 5, 5-[4-(trifluoromethoxy)phenyl]-3H-1,3-benzoxazol-2-one] it is greater than 70%.

On to `O=c1oc2ccc(-c3ccc(OCC(F)(F)F)nc3)cc2n1CC(F)(F)F` [Compound 6], for which the inhibition at 1 µM is 30 to 70%. Turning to `COCc1cc(OC(F)(F)F)ccc1-c1ccc2oc(=O)n(CC(F)(F)F)c2c1` [Compound 7], the inhibition at 1 µM is greater than 70%.

Take `COCCn1c(=O)oc2ccc(-c3ccc(OC(F)(F)F)cc3)cc21` [Compound 9]: the inhibition at 1 µM was less than 30%. The figure for `Cn1c(=O)oc2ccc(-c3ccc(OC(F)(F)F)cc3)cc21` [Compound 10] is greater than 70%; for `CCn1c(=O)oc2ccc(-c3ccc(OC(F)(F)F)cc3)cc21` [Compound 11] it is greater than 70%; for `O=c1oc2ccc(-c3ccc(OC(F)(F)F)cc3)cc2n1CC1CC1` [Compound 12] it is greater than 70%.

For the molecule `COCCCn1c(=O)oc2ccc(-c3ccc(OC(F)(F)F)cc3)cc21` [Compound 15], the inhibition at 1 µM was less than 30%. The same measure for `O=C(O)Cn1c(=O)oc2ccc(-c3ccc(OC(F)(F)F)cc3)cc21` [Compound 16, 2-[2-oxo-5-[4-(trifluoromethoxy)phenyl]-1,3-benzoxazol-3-yl]acetic acid]: less than 30%; for `O=C(Cn1c(=O)oc2ccc(-c3ccc(OC(F)(F)F)cc3)cc21)N1CCCC1` [Compound 17]: 30 to 70%; for `O=c1oc2ccc(-c3ccc(OC(F)(F)F)cc3)cc2n1CCC1CC1` [Compound 19]: greater than 70%.

As for `O=c1[nH]c2cc(-c3ccc(OCC(F)(F)F)nc3)ccc2o1` [Compound 20], the inhibition at 1 µM is 30 to 70%. The figure for `Cc1nnc(CCN2C(=O)Cc3ccc(-c4ccc(OC(F)(F)F)cc4)cc32)o1` [Compound 21] is 30 to 70%. For the molecule `O=c1oc2ncc(-c3ccc(OC(F)(F)F)cc3)cc2n1CC(F)(F)F` [Compound 22], the inhibition at 1 µM is less than 30%. As to `O=C(O)CCn1c(=O)oc2ccc(-c3ccc(OC(F)(F)F)cc3)cc21` [Compound 24], the inhibition at 1 µM is less than 30%. The same measure for `O=C(CCn1c(=O)oc2ccc(-c3ccc(OC(F)(F)F)cc3)cc21)N1CCCC1` [Compound 26]: greater than 70%; for `CCN(CC)C(=O)CCn1c(=O)oc2ccc(-c3ccc(OC(F)(F)F)cc3)cc21` [Compound 28]: greater than 70%. The same measure for `O=c1[nH]c2nc(-c3ccc(OC(F)(F)F)cc3)ccc2o1` [Compound 29, 5-[4-(trifluoromethoxy)phenyl]-3H-oxazolo[4,5-b]pyridin-2-one]: less than 30%. The figure for `O=C1CCCN1CCCn1c(=O)oc2ccc(-c3ccc(OC(F)(F)F)cc3)cc21` [Compound 30] is 30 to 70%; for `O=C1OCCN1CCCn1c(=O)oc2ccc(-c3ccc(OC(F)(F)F)cc3)cc21` [Compound 31] it is 30 to 70%; for `Cn1c(=O)n(CC(F)(F)F)c2cc(-c3ccc(OC(F)(F)F)cc3)ccc21` [Compound 32] it is 30 to 70%.
